Reference: US12122816B2, “Long acting peptide tyrosine tyrosine (PYY) analogs and methods of use” (Intarcia Therapeutics, Inc., priority 2020, dated 2024)
Starred links: 1 amine or outer side, 2 acyl side, 3 side chain; linkers in the order of their positions; H or OH if unused. Residues, ends and D or L forms follow the SMILES beside them. Groups on a side chain read outwards from the residue. *: point of attachment. C20 diacid = O=C(O)CCCCCCCCCCCCCCCCCCC(=O)*; γGlu = O=C(O)[C@H](CCC(=O)[*:2])N[*:1]

Experiments:
human Y2 receptor = target: T1, human Y2 receptor (Homo sapiens, UniProt P49146); assay: NPY receptor functional assay (cAMP, HEK-CNG cells, ACTOne membrane potential dye); type: cell-based; details: NPY2R pEC50, HEK-CNG cells; standard PYY(3-36); species (human or rat) not given
T1 sequence (P49146 1-381): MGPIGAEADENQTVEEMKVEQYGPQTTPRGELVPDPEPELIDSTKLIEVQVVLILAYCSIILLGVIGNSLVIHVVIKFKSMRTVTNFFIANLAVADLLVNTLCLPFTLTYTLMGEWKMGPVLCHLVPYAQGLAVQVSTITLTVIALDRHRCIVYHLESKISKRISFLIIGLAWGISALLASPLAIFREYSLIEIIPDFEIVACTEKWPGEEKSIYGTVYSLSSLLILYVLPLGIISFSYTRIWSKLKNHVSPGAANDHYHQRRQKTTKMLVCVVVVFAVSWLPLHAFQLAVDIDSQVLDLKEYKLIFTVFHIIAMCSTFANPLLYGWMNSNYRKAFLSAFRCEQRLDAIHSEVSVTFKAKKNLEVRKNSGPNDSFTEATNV
Outline: (§1)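 HEK-CNG cells stably expressing each human receptor; peptides added in triplicate for 50 minutes at room temperature, with agonism read as decreased isoproterenol-induced membrane potential dye signal (final/initial read).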

human Y5 receptor = target: T2, human Y5 receptor (Homo sapiens, UniProt Q15761); assay: as above; type: cell-based; details: NPY5R pEC50, HEK-CNG cells; standard NPY; species (human or rat) not given
T2 sequence (Q15761 1-445): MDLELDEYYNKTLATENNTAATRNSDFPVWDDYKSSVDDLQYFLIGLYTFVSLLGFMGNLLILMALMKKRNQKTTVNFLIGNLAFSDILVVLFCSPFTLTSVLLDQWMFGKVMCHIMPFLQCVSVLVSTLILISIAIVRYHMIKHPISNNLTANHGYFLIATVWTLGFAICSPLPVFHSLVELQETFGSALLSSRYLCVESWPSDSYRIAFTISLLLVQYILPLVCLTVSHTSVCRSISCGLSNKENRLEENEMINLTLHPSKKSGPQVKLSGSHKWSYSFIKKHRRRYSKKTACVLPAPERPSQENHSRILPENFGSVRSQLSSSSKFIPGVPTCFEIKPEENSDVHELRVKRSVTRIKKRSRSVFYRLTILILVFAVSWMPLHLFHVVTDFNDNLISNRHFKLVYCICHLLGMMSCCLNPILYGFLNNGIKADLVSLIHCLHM
Outline: as §1

[1] = In vitro metabolic stability in kidney brush border membranes (kBBM); type: in vitro ADME; details: pH 7.4, human kBBM 50 mcg protein/mL, 1 mcM peptide, 37° C., read-out: hkBBM t½ (converted)
Description: In vitro incubations in kidney brush border membrane (kBBM) preparations were used to characterize the ability of peptides to resist degradation by proteases and peptidases in the systemic circulation. kBBM were selected because they contain a high concentration of a diverse set of proteases and peptidases, many of which are present throughout the body.
Brush border membranes from rat and human kidney tissue were prepared via centrifugation and stored at −70° C. Thawed stocks of rat or human kBBM were diluted to the appropriate concentration in 25 mM HEPES buffer (pH 7.4) containing 1% casein and aliquoted into a 96-well plate. The kBBM solutions were pre-warmed for 10 minutes at 37° C. […] The final concentration of kBBM in each incubation was 50 mcg protein/mL. Reactions were maintained at 37° C. in a shaking water bath. […] Quenched samples were centrifuged at 2178×g for 10 min and then a portion of the supernatants were transferred to a clean 96-well plate and diluted 1:1 with water. Samples were analyzed by UPLC-MS/MS.

[2] = In vitro stability in subcutaneous (SC) tissue homogenates; type: in vitro ADME; details: subcutaneous tissue homogenate, pH 7.4; human SC tissue homogenate 1.0 mg protein/mL, 10 mcM peptide, 37° C.; read-out: (H)SC tissue stability t½ (converted)
Description: In vitro incubations in subcutaneous (SC) tissue homogenates were used to characterize the ability of peptides to resist pre-systemic degradation by proteases and peptidases after SC administration. […] Peptides with high SC bioavailability are stable in this assay, while peptides with low SC bioavailability are unstable in this assay.
Human SC tissue was homogenized in cold 25 mM HEPES buffer (pH 7.4, 10-fold volume based on sample weight), and then filtered through a double layer of cheesecloth. The filtrates were aliquoted, flash frozen on a methanol/dry ice bath and stored at −80° C. The protein concentration of each pooled batch was determined using the BCA protein assay. Thawed stocks of human SC tissue homogenates were diluted to 1.0 mg protein/mL in 25 mM HEPES buffer (pH 7.4) and aliquoted into a 96-well plate. The diluted SC homogenates were pre-warmed for 10 minutes at 37° C. […] Reactions were maintained at 37° C. in a shaking water bath. […] Quenched samples were centrifuged at 2178×g for 10 min and then a portion of the supernatants were transferred to a clean 96-well plate and diluted 1:10 with water. Samples were analyzed by UPLC-MS/MS.

human Y4 receptor = human Y4 receptor (Homo sapiens, UniProt P50391); assay: NPY receptor functional assay (cAMP, HEK-CNG cells, ACTOne membrane potential dye); type: cell-based; details: standard PP, species (human or rat) not given
Outline: as §1

Chain of human Y4 receptor (P50391 whole entry): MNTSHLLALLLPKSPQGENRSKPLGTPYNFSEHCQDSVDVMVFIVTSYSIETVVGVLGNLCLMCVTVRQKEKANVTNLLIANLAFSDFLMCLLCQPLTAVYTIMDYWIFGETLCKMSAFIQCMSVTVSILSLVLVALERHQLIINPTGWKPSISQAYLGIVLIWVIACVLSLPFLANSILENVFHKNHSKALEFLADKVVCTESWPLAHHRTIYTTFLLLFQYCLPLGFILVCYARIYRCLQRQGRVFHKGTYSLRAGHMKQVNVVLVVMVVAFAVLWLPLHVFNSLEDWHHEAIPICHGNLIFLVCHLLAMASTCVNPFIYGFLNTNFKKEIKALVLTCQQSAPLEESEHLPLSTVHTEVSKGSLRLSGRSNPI

Structure (SMILES): CC(C)C[C@H](NC(=O)[C@H](CC(=O)O)NC(=O)[C@H](CCCCNC(=O)CC[C@H](NC(=O)CC[C@H](NC(=O)CCCCCCCCCCCCCCCCCCC(=O)O)C(=O)O)C(=O)O)NC(=O)[C@H](Cc1ccc(O)cc1)NC(=O)[C@H](Cc1ccc(O)cc1)NC(=O)[C@H](CCCNC(=N)N)NC(=O)[C@H](CC(N)=O)NC(=O)[C@H](Cc1c[nH]c2ccccc12)NC(=O)[C@H](CCC(=O)O)NC(=O)[C@H](CCCCN)NC(=O)[C@@H]1CCCN1C(=O)[C@H](CO)NC(=O)[C@H](C)NC(=O)[C@H](CC(=O)O)NC(=O)[C@H](CCC(=O)O)NC(=O)CNC(=O)[C@@H]1CCCN1C(=O)[C@H](CCCCN)NC(=O)[C@H](CCC(=O)O)NC(=O)[C@@H]1CCCN1C(=O)[C@H](CCCCN)NC(=O)[C@@H]1CCCN1)C(=O)N[C@@H](CCCNC(=N)N)C(=O)N[C@@H](Cc1c[nH]cn1)C(=O)N[C@@H](Cc1ccc(O)cc1)C(=O)N[C@@H](CC(C)C)C(=O)N[C@@H](CC(N)=O)C(=O)N[C@@H](Cc1c[nH]c2ccccc12)C(=O)N[C@@H](CC(C)C)C(=O)N[C@H](C(=O)N[C@@H](CCCNC(=N)N)C(=O)N[C@@H](CCC(N)=O)C(=O)N[C@@H](CCCNC(=N)N)C(=O)N[C@@H](Cc1ccccc1)C(N)=O)[C@@H](C)O [Compound A29]
- EC50 (human Y2 receptor): 0.0126 nM
- EC50 (human Y5 receptor): 1 nM
- half-life at 1 mcM [1]: 8.7 h
- half-life at 10 mcM [2]: 1.1 h

Structure (SMILES): CC(C)C[C@H](NC(=O)[C@H](Cc1ccc(O)cc1)NC(=O)[C@H](Cc1c[nH]cn1)NC(=O)[C@H](CCCNC(=N)N)NC(=O)[C@H](C)NC(=O)[C@H](CC(=O)O)NC(=O)[C@H](C)NC(=O)[C@H](Cc1ccc(O)cc1)NC(=O)[C@H](Cc1ccc(O)cc1)NC(=O)[C@H](CCCNC(=N)N)NC(=O)[C@H](CC(N)=O)NC(=O)[C@H](Cc1c[nH]c2ccccc12)NC(=O)[C@H](CCC(=O)O)NC(=O)[C@H](CCCCNC(=O)CC[C@H](NC(=O)CC[C@H](NC(=O)CCCCCCCCCCCCCCCCCCC(=O)O)C(=O)O)C(=O)O)NC(=O)[C@@H]1CCCN1C(=O)[C@H](CO)NC(=O)[C@H](C)NC(=O)[C@H](CC(=O)O)NC(=O)[C@H](CCCCN)NC(=O)CNC(=O)[C@@H]1CCCN1C(=O)[C@H](C)NC(=O)[C@H](CCC(=O)O)NC(=O)[C@@H]1CCCN1C(=O)[C@H](CCCCN)NC(=O)[C@@H]1CCCN1)C(=O)N[C@@H](CC(N)=O)C(=O)N[C@@H](Cc1c[nH]c2ccccc12)C(=O)N[C@@H](CC(C)C)C(=O)N[C@H](C(=O)N[C@@H](CCCNC(=N)N)C(=O)N[C@@H](CCC(N)=O)C(=O)N[C@@H](CCCNC(=N)N)C(=O)N(C)[C@@H](Cc1ccc(O)cc1)C(N)=O)[C@@H](C)O [Compound A8]
- EC50 (human Y2 receptor): 0.251 nM
- NPY4R pEC50 (human Y4 receptor): inactive
- EC50 (human Y5 receptor): 79.4 nM

Structure (SMILES): CC(C)C[C@H](NC(=O)[C@H](Cc1ccc(O)cc1)NC(=O)[C@H](Cc1c[nH]cn1)NC(=O)[C@H](CCCNC(=N)N)NC(=O)[C@H](C)NC(=O)[C@H](CC(=O)O)NC(=O)[C@H](C)NC(=O)[C@H](Cc1ccc(O)cc1)NC(=O)[C@H](Cc1ccc(O)cc1)NC(=O)[C@H](CCCNC(=N)N)NC(=O)[C@H](CC(N)=O)NC(=O)[C@H](CC(C)C)NC(=O)[C@H](CCC(=O)O)NC(=O)[C@H](CCC(=O)O)NC(=O)[C@@H]1CCCN1C(=O)[C@H](CO)NC(=O)[C@H](C)NC(=O)[C@H](CC(=O)O)NC(=O)[C@H](CCCCN)NC(=O)[C@H](CCCCNC(=O)CC[C@H](NC(=O)CC[C@H](NC(=O)CCCCCCCCCCCCCCCCCCC(=O)O)C(=O)O)C(=O)O)NC(=O)[C@@H]1CCCN1C(=O)[C@H](C)NC(=O)[C@H](CCC(=O)O)NC(=O)[C@@H]1CCCN1C(=O)[C@H](CCCCN)NC(=O)[C@@H]1CCCN1)C(=O)N[C@@H](CC(N)=O)C(=O)N[C@@H](Cc1c[nH]c2ccccc12)C(=O)N[C@@H](CC(C)C)C(=O)N[C@H](C(=O)N[C@@H](CCCNC(=N)N)C(=O)N[C@@H](CCC(N)=O)C(=O)N[C@@H](CCCNC(=N)N)C(=O)N[C@@H](Cc1ccccc1)C(N)=O)[C@@H](C)O [Compound A64] (H-PKPEAPK([γGlu-γGlu-C20 diacid])KDASPEELNRYYADARHYLNWLTRQRF-NH2; N-terminus assumed)
- EC50 (human Y2 receptor): 2.51 nM
- NPY4R pEC50 (human Y4 receptor): inactive
- EC50 (human Y5 receptor): 12.6 nM

Structure (SMILES): CC(C)C[C@H](NC(=O)[C@H](CC(=O)O)NC(=O)[C@H](C)NC(=O)[C@H](Cc1ccc(O)cc1)NC(=O)[C@H](Cc1ccc(O)cc1)NC(=O)[C@H](CCCNC(=N)N)NC(=O)[C@H](CC(N)=O)NC(=O)[C@H](Cc1c[nH]c2ccccc12)NC(=O)[C@H](CCC(=O)O)NC(=O)[C@H](CCC(=O)O)NC(=O)[C@@H]1CCCN1C(=O)[C@H](CO)NC(=O)[C@H](C)NC(=O)[C@H](CC(=O)O)NC(=O)[C@H](CCCCN)NC(=O)CNC(=O)[C@@H]1CCCN1C(=O)[C@H](C)NC(=O)[C@H](CCC(=O)O)NC(=O)[C@@H]1CCCN1C(=O)[C@H](CCCCN)NC(=O)[C@@H]1CCCN1)C(=O)N[C@@H](CCCCNC(=O)CC[C@H](NC(=O)CC[C@H](NC(=O)CCCCCCCCCCCCCCCCCCC(=O)O)C(=O)O)C(=O)O)C(=O)N[C@@H](Cc1c[nH]cn1)C(=O)N[C@@H](Cc1ccc(O)cc1)C(=O)N[C@@H](CC(C)C)C(=O)N[C@@H](CC(N)=O)C(=O)N[C@@H](Cc1c[nH]c2ccccc12)C(=O)N[C@@H](CC(C)C)C(=O)N[C@H](C(=O)N[C@@H](CCCNC(=N)N)C(=O)N[C@@H](CCC(N)=O)C(=O)N[C@@H](CCCNC(=N)N)C(=O)N[C@@H](Cc1ccccc1)C(N)=O)[C@@H](C)O [Compound A53]
- EC50 (human Y2 receptor): 2 nM
- NPY4R pEC50 (human Y4 receptor): inactive
- EC50 (human Y5 receptor): 50.1 nM

Structure (SMILES): CC(C)C[C@H](NC(=O)[C@H](Cc1ccc(O)cc1)NC(=O)[C@H](Cc1c[nH]cn1)NC(=O)[C@H](CCCNC(=N)N)NC(=O)[C@H](C)NC(=O)[C@H](CC(=O)O)NC(=O)[C@H](C)NC(=O)[C@H](Cc1ccc(O)cc1)NC(=O)[C@H](Cc1ccc(O)cc1)NC(=O)[C@H](CCCNC(=N)N)NC(=O)[C@H](CC(N)=O)NC(=O)[C@H](Cc1c[nH]c2ccccc12)NC(=O)[C@H](CCC(=O)O)NC(=O)[C@H](CCC(=O)O)NC(=O)[C@@H]1CCCN1C(=O)[C@H](CO)NC(=O)[C@H](C)NC(=O)[C@H](CC(=O)O)NC(=O)[C@H](CCCCN)NC(=O)CNC(=O)[C@@H]1CCCN1C(=O)[C@H](C)NC(=O)[C@H](CCCCNC(=O)CC[C@H](NC(=O)CC[C@H](NC(=O)CCCCCCCCCCCCCCCCCCC(=O)O)C(=O)O)C(=O)O)NC(=O)[C@@H]1CCCN1C(=O)[C@H](CCCCN)NC(=O)[C@@H]1CCCN1)C(=O)N[C@@H](CC(N)=O)C(=O)N[C@@H](Cc1c[nH]c2ccccc12)C(=O)N[C@@H](CC(C)C)C(=O)N[C@H](C(=O)N[C@@H](CCCNC(=N)N)C(=O)N[C@@H](CCC(N)=O)C(=O)N[C@@H](CCCNC(=N)N)C(=O)N(C)[C@@H](Cc1ccc(O)cc1)C(N)=O)[C@@H](C)O [Compound A6]
- EC50 (human Y2 receptor): 1.26 nM
- NPY4R pEC50 (human Y4 receptor): inactive
- EC50 (human Y5 receptor): 20 nM
